Test results reported in paper PMC6150375, “Synthesis, Biological Evaluation and Molecular Docking Study of 2-Substituted-4,6-Diarylpyrimidines as α-Glucosidase Inhibitors” (Molecules : A Journal of Synthetic Chemistry and Natural …, 2017).

Compound | melting point
Clc1ccccc1CSc1nc(-c2ccc(Br)cc2)cc(-c2ccc(Br)cc2)n1 [Compound 6a, 4,6-Bis(4-bromophenyl)-2-((2-chlorobenzyl)thio)pyrimidine] | 147 to 148 °C
Clc1ccc(CSc2nc(-c3ccc(Br)cc3)cc(-c3ccc(Br)cc3)n2)cc1 [Compound 6b, 4,6-Bis(4-bromophenyl)-2-((4-chlorobenzyl)thio)pyrimidine] | 176 to 178 °C
Fc1ccccc1CSc1nc(-c2ccc(Br)cc2)cc(-c2ccc(Br)cc2)n1 [Compound 6d, 4,6-Bis(4-bromophenyl)-2-((2-fluorobenzyl)thio)pyrimidine] | 149 to 150 °C
Cc1ccc(-c2cc(-c3cccc(Br)c3)nc(SCc3ccccc3Cl)n2)cc1 [Compound 6f, 4-(3-Bromophenyl)-2-((2-chlorobenzyl)thio)-6-(p-tolyl)pyrimidine] | 107 to 110 °C
Cc1ccc(-c2cc(-c3cccc(Br)c3)nc(SCc3ccccc3F)n2)cc1 [Compound 6i, 4-(3-Bromophenyl)-2-((2-fluorobenzyl)thio)-6-(p-tolyl)pyrimidine] | 100 to 104 °C
Cc1ccc(-c2cc(-c3ccc(Br)cc3)nc(SCc3ccccc3Br)n2)cc1 [Compound 6k, 2-((2-Bromobenzyl)thio)-4-(4-bromophenyl)-6-(p-tolyl)pyrimidine] | 123 to 126 °C
Cc1ccc(-c2cc(-c3ccc(Br)cc3)nc(SCc3ccc(F)cc3)n2)cc1 [Compound 6l, 4-(4-Bromophenyl)-2-((4-fluorobenzyl)thio)-6-(p-tolyl)pyrimidine] | 115 to 124 °C
Cc1ccc(-c2cc(-c3ccc(Br)cc3)nc(SCc3ccccc3F)n2)cc1 [Compound 6m, 4-(4-Bromophenyl)-2-((2-fluorobenzyl)thio)-6-(p-tolyl)pyrimidine] | 124 to 127 °C
Cc1ccc(-c2cc(-c3ccc(Br)cc3)nc(SCc3cccc(F)c3)n2)cc1 [Compound 6n, 4-(4-Bromophenyl)-2-((3-fluorobenzyl)thio)-6-(p-tolyl)pyrimidine] | 106 to 109 °C
Cc1ccc(-c2cc(-c3ccc(Br)cc3)nc(SCc3ccccc3)n2)cc1 [Compound 6o, 2-(Benzylthio)-4-(4-bromophenyl)-6-(p-tolyl)pyrimidine] | 129 to 130 °C
Cc1ccc(-c2cc(-c3cccc(Br)c3)nc(SCc3ccc(Br)cc3)n2)cc1 [Compound 6r, 2-((4-Bromobenzyl)thio)-4-(3-bromophenyl)-6-(p-tolyl)pyrimidine] | 135 to 138 °C
Clc1ccccc1CSc1nc(-c2ccc(Br)cc2)cc(-c2cccc(Br)c2)n1 [Compound 6s, 4-(3-Bromophenyl)-6-(4-bromophenyl)-2-((2-chlorobenzyl)thio)pyrimidine] | 129 to 132 °C
Fc1cccc(CSc2nc(-c3ccc(Br)cc3)cc(-c3cccc(Br)c3)n2)c1 [Compound 6t, 4-(3-Bromophenyl)-6-(4-bromophenyl)-2-((3-fluorobenzyl)thio)pyrimidine] | 94 to 96 °C
